Measurements published in BigSolDB 2.1.

O=C(O)c1cc([N+](=O)[O-])cc([N+](=O)[O-])c1O
solubility (mole fraction)
Details	278.15 K	283.15 K	288.15 K	293.15 K	298.15 K	303.15 K	308.15 K	313.15 K	318.15 K	323.15 K
in 1,4-dioxane	–	–	0.044	0.0495	0.0554	0.0622	0.0695	0.0778	0.0877	0.0994
in DMF	0.0853	0.0951	0.107	0.119	0.135	0.152	0.171	0.19	0.214	0.241
in DMSO	–	–	–	0.0749	0.0869	0.0999	0.114	0.13	0.149	0.172
in NMP	0.0924	0.103	0.116	0.13	0.146	0.166	0.185	0.207	0.234	0.264
in acetonitrile	0.0108	0.0125	0.0149	0.0177	0.0209	0.0248	0.029	0.0349	0.0411	0.0485
in cyclohexane	–	0.00292	0.0036	0.00449	0.00558	0.00686	0.00836	0.0104	0.0128	0.0156
in ethanol	0.0465	0.0518	0.0582	0.0659	0.0756	0.0862	0.0977	0.11	0.124	0.14
in ethyl acetate	0.046	0.0501	0.0554	0.0619	0.0687	0.0771	0.0858	0.0966	0.109	0.122
in ethylene glycol	0.0245	0.0277	0.0316	0.0365	0.0415	0.0476	0.054	0.062	0.0709	0.082
in isobutanol	0.0139	0.0161	0.0198	0.0244	0.0295	0.0358	0.0439	0.0506	0.0589	0.0712
in isopropanol	0.0262	0.03	0.0348	0.0402	0.0463	0.053	0.0608	0.0702	0.0808	0.0944
in n-butanol	0.0116	0.0141	0.0172	0.0199	0.024	0.0301	0.0345	0.0424	0.049	0.0592
in n-propanol	0.0364	0.0403	0.0456	0.0521	0.0597	0.068	0.0769	0.0866	0.0972	0.111
in water	0.000646	0.000779	0.000964	0.0012	0.00145	0.00171	0.00198	0.00245	0.00301	0.00381
